This passage reports GI50 results from patent US20250388605A1, “HETEROBIFUNCTIONAL COMPOUNDS AND METHODS OF TREATING DISEASE” (Halda Therapeutics OpCo, Inc., priority 2022, published 2025).

The subject of test [1] is T-Rex 293 cell line SC3 cells lacking increased expression of androgen receptor protein. Briefly: Cellular growth inhibition, T-Rex 293 SC3 cells without doxycycline (no increased androgen receptor expression), CellTiter-Glo. In kind it is cell-based. The settings on record: T-Rex 293 SC3 cells not exposed to doxycycline (no increased androgen receptor expression), 72 hours. The method, boiled down:
(§1)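 Growth inhibition is measured in an inducible AR-expressing T-Rex 293 clone, SC3, cultured with or without 10 ng/mL doxycycline in hormone-depleted medium. Test compounds are applied for 72 hours. GI50 values derive from CellTiter-Glo 2.0 signal fitted by four-parameter regression.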
A general note: ATP-based viability assays read luminescence as a measure of living cells.

In test [2] the test system is T-Rex 293 cell line SC3 cells having increased expression of androgen receptor protein due to exposure to doxycycline. Put plainly: Cellular growth inhibition, T-Rex 293 SC3 cells with doxycycline (increased androgen receptor expression), CellTiter-Glo. Format: cell-based. The settings on record: T-Rex 293 SC3 cells with 10 ng/mL doxycycline (increased androgen receptor expression), 72 hours, CellTiter-Glo 2.0. A digest of the protocol: as §1

On to `CCS(=O)(=O)Nc1ccc(Oc2cccc(CCOC3CCN(c4ncc(C(=O)N[C@H]5C(C)(C)[C@H](Oc6ccc(C#N)c(Cl)c6)C5(C)C)cn4)CC3)c2)c(-c2cn(C)c(=O)c3[nH]ccc23)c1` [Compound I-19], for which the GI50 in test [1] and in test [2] was less than 500 nM throughout.

For `CCS(=O)(=O)Nc1ccc(Oc2cccc(N3CC4(CN(CC5CCN(c6ncc(C(=O)N[C@H]7C(C)(C)[C@H](Oc8ccc(C#N)c(Cl)c8)C7(C)C)cn6)CC5)C4)C3)c2)c(-c2cn(C)c(=O)c3[nH]ccc23)c1` [Compound I-35, N-((1r, 3r)-3-(3-chloro-4-cyanophenoxy)-2,2,4,4-tetramethylcyclobutyl)-2-(4-((6-(3-(4-(ethylsulfonamido)-2-(6-methyl-7-oxo-6,7-dihydro-1H-pyrrolo[2,3-c]pyridin-4-yl)phenoxy)phenyl)-2,6-diazaspiro[3.3]heptan-2-yl)methyl)piperidin-1-yl)pyrimidine-5-carboxamide], the figures for the GI50 in test [1] and in test [2] were 1500 to 3000 nM and less than 500 nM, respectively.

With `CCS(=O)(=O)Nc1ccc(Oc2cccc(OC3CCC4(CC3)CCN(c3ncc(C(=O)N[C@H]5C(C)(C)[C@H](Oc6ccc(C#N)c(Cl)c6)C5(C)C)cn3)CC4)c2)c(-c2cn(C)c(=O)c3[nH]ccc23)c1` [Compound I-45], the GI50 (commonly the concentration giving 50% growth inhibition) in test [1] was greater than 3000 nM; in test [2] it was less than 500 nM.

Take `CCS(=O)(=O)Nc1ccc(Oc2cccc(OCCOC3CCN(c4ccc(C(=O)N[C@H]5C(C)(C)[C@H](Oc6ccc(C#N)c(Cl)c6)C5(C)C)cn4)CC3)c2)c(-c2cn(C)c(=O)c3[nH]ccc23)c1` [Compound I-70, N-((1r, 3r)-3-(3-chloro-4-cyanophenoxy)-2,2,4,4-tetramethylcyclobutyl)-6-(4-(2-(3-(4-(ethylsulfonamido)-2-(6-methyl-7-oxo-6,7-dihydro-1H-pyrrolo[2,3-c]pyridin-4-yl)phenoxy)phenoxy)ethoxy)piperidin-1-yl)nicotinamide]: the GI50 in test [1] and in test [2] was less than 500 nM each time.

Turning to `CCS(=O)(=O)Nc1ccc(Oc2cccc(OCCOC3CCN(c4cnc(C(=O)N[C@H]5C(C)(C)[C@H](Oc6ccc(C#N)c(Cl)c6)C5(C)C)cn4)CC3)c2)c(-c2cn(C)c(=O)c3[nH]ccc23)c1` [Compound I-71, N-((1r, 3r)-3-(3-chloro-4-cyanophenoxy)-2,2,4,4-tetramethylcyclobutyl)-5-(4-(2-(3-(4-(ethylsulfonamido)-2-(6-methyl-7-oxo-6,7-dihydro-1H-pyrrolo[2,3-c]pyridin-4-yl)phenoxy)phenoxy)ethoxy)piperidin-1-yl)pyrazine-2-carboxamide], the GI50 in test [1] and in test [2] was less than 500 nM in each case.

Regarding `Cn1cc(-c2cc(N)ccc2Oc2cccc(N3CC(N4CCN(c5ncc(C(=O)N[C@H]6C(C)(C)[C@H](Oc7ccc(C#N)c(Cl)c7)C6(C)C)cn5)CC4)C3)c2F)c2cc[nH]c2c1=O` [Compound I-93], the GI50 in test [1] is greater than 3000 nM; in test [2], less than 500 nM.

With `Cn1cc(-c2cc(N)ccc2Oc2cccc(OCCN3CCN(c4ncc(C(=O)N[C@H]5C(C)(C)[C@H](Oc6ccc(C#N)c(Cl)c6)C5(C)C)cn4)CC3)c2F)c2cc[nH]c2c1=O` [Compound I-100], the GI50 is greater than 3000 nM in test [1] and less than 500 nM in test [2].

On to `Cn1cc(-c2cc(N)ccc2Oc2cccc(OCCC3CCN(c4ncc(C(=O)N[C@H]5C(C)(C)[C@H](Oc6ccc(C#N)c(Cl)c6)C5(C)C)cn4)CC3)c2)c2cc[nH]c2c1=O` [Compound I-101], for which the GI50 is greater than 3000 nM in test [1] and less than 500 nM in test [2].

For `CCS(=O)(=O)Nc1ccc(Oc2cccc(OC3CC(C4CCN(c5ncc(C(=O)N[C@H]6C(C)(C)[C@H](Oc7ccc(C#N)c(Cl)c7)C6(C)C)cn5)CC4)C3)c2)c(-c2cn(C)c(=O)c3[nH]ccc23)c1` (some centres unmarked) [Compound I-104], the GI50 in test [1] was 500 to 1500 nM; in test [2] it was less than 500 nM.

Take `CCS(=O)(=O)N(C)c1ccc(Oc2cccc(N3CCN(C4CN(c5ncc(C(=O)N[C@H]6C(C)(C)[C@H](Oc7ccc(C#N)c(Cl)c7)C6(C)C)cn5)C4)CC3)c2)c(-c2cn(C)c(=O)c3[nH]ccc23)c1` [Compound I-118]: the figures for the GI50 in test [1] and in test [2] were greater than 3000 nM and less than 500 nM, respectively.
